Each molecule was assayed against Human LDHA (Homo sapiens (Human), UniProt P00338) (assay: human LDHA primary biochemical assay (resazurin/diaphorase coupled, fluorescence)). Conditions: LDHA inhibitory activity, assay of Example 1; activity level classes.
Source text: Test compounds were placed in a Greiner Bio-One (Monroe, N.C.) 1536-well black solid bottom assay plate. 200 millimolar (mM) Tris HCl, pH 7.4, 100 micromolar […] EDTA and 0.01% TWEEN-20™, final concentration, was used as the assay buffer. The LDHA reagent was 2 nanomolar (nM) Human LDHA (Meridian Life Science, Inc., Memphis, Tenn.), final concentration, in assay buffer.

Row | IC50 [µM] | SMILES
1 | > 57 | Nc1c(Cc2ccc(S(N)(=O)=O)cc2)c(-c2ccccc2)nn1-c1nccc(O)n1 [Compound 152, 4-((5-amino-1-(4-hydroxypyrimidin-2-yl)-3-phenyl-1H-pyrazol-4-yl)methyl)benzenesulfonamide]
2 | > 57 | NS(=O)(=O)c1ccc(Nc2c[nH]nc2-c2cccc(-c3ccccc3)c2)cc1 [Compound 161]
3 | > 57 | CCOC(=O)c1csc(-n2nc(C3CC3)c(Oc3ccc(S(N)(=O)=O)cc3)c2-c2ccccc2)n1 [Compound 163, ethyl 2-(3-cyclopropyl-5-phenyl-4-(4-sulfamoylphenoxy)-1H-pyrazol-1-yl)thiazole-4-carboxylate]
4 | < 0.1 | C=Cc1c(Cc2ccc(S(N)(=O)=O)cc2)c(-c2ccccc2)nn1-c1nc(C(=O)O)cs1 [Compound 167, 2-(3-phenyl-4-(4-sulfamoylbenzyl)-5-vinyl-1H-pyrazol-1-yl)thiazole-4-carboxylic acid]
5 | > 57 | CCOC(=O)c1csc(-n2nc(C3CCCC3)c(Oc3ccc(S(N)(=O)=O)cc3)c2-c2ccccc2)n1 [Compound 168, ethyl 2-(3-cyclopentyl-5-phenyl-4-(4-sulfamoylphenoxy)-1H-pyrazol-1-yl)thiazole-4-carboxylate]
6 | > 57 | CCOC(=O)c1csc(-n2nc(-c3ccccc3)c(Oc3ccc(S(N)(=O)=O)cc3)c2C2CCCC2)n1 [Compound 169, ethyl 2-(5-cyclopentyl-3-phenyl-4-(4-sulfamoylphenoxy)-1H-pyrazol-1-yl)thiazole-4-carboxylate]
7 | > 57 | CCOC(=O)c1csc(-n2nc(C3CC3)c(Cc3ccc(S(N)(=O)=O)cc3)c2-c2cccc(-c3ccccc3)c2)n1 [Compound 180, ethyl 2-(5-([1,1′-biphenyl]-3-yl)-3-cyclopropyl-4-(4-sulfamoylbenzyl)-1H-pyrazol-1-yl)thiazole-4-carboxylate]
8 | > 57 | CCOC(=O)c1csc(-n2nc(-c3cccc(-c4ccccc4)c3)c(Cc3ccc(S(N)(=O)=O)cc3)c2C2CC2)n1 [Compound 181, ethyl 2-(3-([1,1′-biphenyl]-3-yl)-5-cyclopropyl-4-(4-sulfamoylbenzyl)-1H-pyrazol-1-yl)thiazole-4-carboxylate]
9 | > 57 | COC(=O)c1cnc(-n2nc(-c3ccccc3)c(Cc3ccc(S(N)(=O)=O)cc3)c2N)nc1C(F)(F)F [Compound 190, methyl 2-(5-amino-3-phenyl-4-(4-sulfamoylbenzyl)-1H-pyrazol-1-yl)-4-(trifluoromethyl)pyrimidine-5-carboxylate]
10 | > 57 | Nc1c(Cc2ccc(S(N)(=O)=O)cc2)c(-c2ccccc2)nn1-c1ccc(C(=O)O)nn1 [Compound 191, 6-(5-amino-3-phenyl-4-(4-sulfamoylbenzyl)-1H-pyrazol-1-yl)pyridazine-3-carboxylic acid]

Row | SMILES | IC50 [µM]
11 | NS(=O)(=O)c1ccc(Oc2c(-c3ccccc3)nn(-c3nc(C(=O)O)cs3)c2C2CC2)cc1 [Compound 166, 2-(5-cyclopropyl-3-phenyl-4-(4-sulfamoylphenoxy)-1H-pyrazol-1-yl)thiazole-4-carboxylic acid] | < 0.1
12 | NS(=O)(=O)c1ccc(Oc2c(C3CCCC3)nn(-c3nc(C(=O)O)cs3)c2-c2ccccc2)cc1 [Compound 174, 2-(3-cyclopentyl-5-phenyl-4-(4-sulfamoylphenoxy)-1H-pyrazol-1-yl)thiazole-4-carboxylic acid] | 1 to 57

Same assay, conditions: read-out: Inhibitory activity IC50

Row | IC50 [µM] | SMILES
13 | 1 to 57 | CCOC(=O)c1coc(-n2nc(-c3ccccc3)c(Cc3ccc(S(N)(=O)=O)cc3)c2N)n1 [Compound 151, ethyl 2-(5-amino-3-phenyl-4-(4-sulfamoylbenzyl)-1H-pyrazol-1-yl)oxazole-4-carboxylate]
14 | 0.1 to 1 | Nc1c(Cc2ccc(S(N)(=O)=O)cc2)c(-c2ccccc2)nn1-c1nc(C(=O)O)co1 [Compound 153, 2-(5-amino-3-phenyl-4-(4-sulfamoylbenzyl)-1H-pyrazol-1-yl)oxazole-4-carboxylic acid]
15 | 1 to 57 | CC(C)c1nn(-c2nc(C(=O)O)cs2)c(-c2ccccc2)c1Cc1ccc(S(N)(=O)=O)cc1 [Compound 158, 2-(3-isopropyl-5-phenyl-4-(4-sulfamoylbenzyl)-1H-pyrazol-1-yl)thiazole-4-carboxylic acid]
16 | 0.1 to 1 | CC(C)c1c(Cc2ccc(S(N)(=O)=O)cc2)c(-c2ccccc2)nn1-c1nc(C(=O)O)cs1 [Compound 159, 2-(5-isopropyl-3-phenyl-4-(4-sulfamoylbenzyl)-1H-pyrazol-1-yl)thiazole-4-carboxylic acid]
17 | 1 to 57 | CCOC(=O)c1csc(-n2cc(Nc3ccc(S(N)(=O)=O)cc3)c(-c3cccc(-c4ccccc4)c3)n2)n1 [Compound 162, ethyl 2-(3-([1,1′-biphenyl]-3-yl)-4-((4-sulfamoylphenyl)amino)-1H-pyrazol-1-yl)thiazole-4-carboxylate]
18 | 1 to 57 | CCOC(=O)c1csc(-n2nc(-c3ccccc3)c(Oc3ccc(S(N)(=O)=O)cc3)c2C2CC2)n1 [Compound 164, ethyl 2-(5-cyclopropyl-3-phenyl-4-(4-sulfamoylphenoxy)-1H-pyrazol-1-yl)thiazole-4-carboxylate]
19 | 1 to 57 | NS(=O)(=O)c1ccc(Oc2c(C3CC3)nn(-c3nc(C(=O)O)cs3)c2-c2ccccc2)cc1 [Compound 165]
20 | 0.1 to 1 | NS(=O)(=O)c1ccc(Oc2c(-c3ccccc3)nn(-c3nc(C(=O)O)cs3)c2C2CCCC2)cc1 [Compound 171, 2-(5-cyclopentyl-3-phenyl-4-(4-sulfamoylphenoxy)-1H-pyrazol-1-yl)thiazole-4-carboxylic acid]
21 | 1 to 57 | NS(=O)(=O)c1ccc(Oc2c(C3CCCCC3)nn(-c3nc(C(=O)O)cs3)c2-c2ccccc2)cc1 [Compound 172, 2-(3-cyclohexyl-5-phenyl-4-(4-sulfamoylphenoxy)-1H-pyrazol-1-yl)thiazole-4-carboxylic acid]
22 | 1 to 57 | NS(=O)(=O)c1ccc(Oc2c(-c3ccccc3)nn(-c3nc(C(=O)O)cs3)c2C2CCCCC2)cc1 [Compound 173, 2-(5-cyclohexyl-3-phenyl-4-(4-sulfamoylphenoxy)-1H-pyrazol-1-yl)thiazole-4-carboxylic acid]
23 | 0.1 to 1 | NS(=O)(=O)c1ccc(Cc2c(-c3ccccc3)nn(-c3nc(C(=O)O)cs3)c2C2CCCC2)cc1 [Compound 175, 2-(5-cyclopentyl-3-phenyl-4-(4-sulfamoylbenzyl)-1H-pyrazol-1-yl)thiazole-4-carboxylic acid]
24 | 1 to 57 | NS(=O)(=O)c1ccc(Cc2c(C3CCCCC3)nn(-c3nc(C(=O)O)cs3)c2-c2ccccc2)cc1 [Compound 176, 2-(3-cyclohexyl-5-phenyl-4-(4-sulfamoylbenzyl)-1H-pyrazol-1-yl)thiazole-4-carboxylic acid]
25 | 1 to 57 | NS(=O)(=O)c1ccc(Cc2c(-c3ccccc3)nn(-c3nc(C(=O)O)cs3)c2C2CCCCC2)cc1 [Compound 177, 2-(5-cyclohexyl-3-phenyl-4-(4-sulfamoylbenzyl)-1H-pyrazol-1-yl)thiazole-4-carboxylic acid]
26 | 1 to 57 | NS(=O)(=O)c1ccc(Cc2c(-c3ccccc3)nn(-c3nc(C(=O)O)cs3)c2C2CO2)cc1 (stereo not drawn) [Compound 178, 2-(5-(oxiran-2-yl)-3-phenyl-4-(4-sulfamoylbenzyl)-1H-pyrazol-1-yl)thiazole-4-carboxylic acid]
27 | 1 to 57 | NS(=O)(=O)c1ccc(Cc2c(-c3ccccc3)nn(-c3nc(C(=O)O)cs3)c2C#Cc2ccccc2)cc1 [Compound 179, 2-(3-phenyl-5-(phenylethynyl)-4-(4-sulfamoylbenzyl)-1H-pyrazol-1-yl)thiazole-4-carboxylic acid]
28 | 1 to 57 | NS(=O)(=O)c1ccc(Cc2c(C3CC3)nn(-c3nc(C(=O)O)cs3)c2-c2cccc(-c3ccccc3)c2)c(F)c1 [Compound 182]
29 | 1 to 57 | NS(=O)(=O)c1ccc(Cc2c(C3CC3)nn(-c3nc(C(=O)O)cs3)c2-c2cccc(-c3ccccc3)c2)cc1 [Compound 184, 2-(5-([1,1′-biphenyl]-3-yl)-3-cyclopropyl-4-(4-sulfamoylbenzyl)-1H-pyrazol-1-yl)thiazole-4-carboxylic acid]
30 | 0.1 to 1 | NS(=O)(=O)c1ccc(Cc2c(-c3ccccc3)nn(-c3nc(C(=O)O)cs3)c2Cc2ccccc2)cc1 [Compound 185, 2-(5-benzyl-3-phenyl-4-(4-sulfamoylbenzyl)-1H-pyrazol-1-yl)thiazole-4-carboxylic acid]
31 | 1 to 57 | NS(=O)(=O)c1ccc(Oc2c(C3CC3)nn(-c3nc(C(=O)O)cs3)c2-c2cccc(-c3ccccc3)c2)cc1 [Compound 186, 2-(5-([1,1′-biphenyl]-3-yl)-3-cyclopropyl-4-(4-sulfamoylphenoxy)-1H-pyrazol-1-yl)thiazole-4-carboxylic acid]
32 | 0.1 to 1 | NS(=O)(=O)c1ccc(Cc2c(CC3CC3)nn(-c3nc(C(=O)O)cs3)c2-c2ccccc2)cc1 [Compound 188, 2-(3-(cyclopropylmethyl)-5-phenyl-4-(4-sulfamoylbenzyl)-1H-pyrazol-1-yl)thiazole-4-carboxylic acid]

Row | SMILES | IC50 [µM]
33 | NS(=O)(=O)c1ccc(Cc2cn(-c3nc(C(O)C(F)(F)F)cs3)nc2-c2ccccc2)cc1 (stereo not drawn) [Compound 154, 4-((3-phenyl-1-(4-(2,2,2-trifluoro-1-hydroxyethyl)thiazol-2-yl)-1H-pyrazol-4-yl)methyl)benzenesulfonamide] | 0.1 to 1
34 | NS(=O)(=O)c1ccc(Cc2c(-c3ccccc3)nn(-c3nc(C(=O)O)cs3)c2-c2ccccc2)cc1 [Compound 155, 2-(3,5-diphenyl-4-(4-sulfamoylbenzyl)-1H-pyrazol-1-yl)thiazole-4-carboxylic acid] | < 0.1
35 | NS(=O)(=O)c1ccc(Cc2c(-c3ccccc3)nn(-c3nc(C(=O)O)cs3)c2-c2ccncc2)cc1 [Compound 156, 2-(3-phenyl-5-(pyridin-4-yl)-4-(4-sulfamoylbenzyl)-1H-pyrazol-1-yl)thiazole-4-carboxylic acid] | 1 to 57
36 | NS(=O)(=O)c1ccc(Oc2c(C3CCCC3)nn(-c3nc(C(=O)O)cs3)c2-c2ccccc2)cc1 [Compound 170, 2-(3-cyclopentyl-5-phenyl-4-(4-sulfamoylphenoxy)-1H-pyrazol-1-yl)thiazole-4-carboxylic acid] | 1 to 57

From patent publication US10961200B2, “Small molecule inhibitors of lactate dehydrogenase and methods of use thereof” (THE UNITED STATES OF AMERICA, AS REPRESENTED BY THE …, priority 2014, dated 2021)
